Measured values from publication PMC2909763 (Chemistry & biology, 2009).
“Also recorded” adds a separate entry of the source.

How the values were obtained:
[1] = system: FXN mRNA in FRDA lymphoblasts; conditions: FRDA cells in culture; ref Herman et al., 2006; cited from earlier work
HDAC = conditions: read-out: IC50 as HDAC inhibitor; ref Herman et al., 2006; cited from earlier work
[2] = system: FXN mRNA in primary lymphocytes from FRDA patients; assay: FXN mRNA by qRT-PCR in primary FRDA patient lymphocytes; format: cell-based, human; conditions: for up-regulation of FXN mRNA: normalized to GAPDH mRNA, relative to DMSO
[3] = system: FXN mRNA in FRDA lymphoblasts; assay: FXN mRNA by qRT-PCR in FRDA lymphoblast cell line; format: cell-based, human
[4] = system: FXN mRNA in patient fibroblasts; assay: FXN mRNA in FRDA patient fibroblasts; format: cell-based, human; conditions: concentrations up to 10 μM, not shown
Sirt1 = conditions: read-out: IC50 Sirt1; reported; ref Napper et al., 2005; cited from earlier work
Sirt2 = conditions: read-out: IC50 Sirt2; reported; ref Napper et al., 2005; cited from earlier work
[5] = system: frataxin protein in FRDA lymphoblasts; assay: Frataxin protein by western blot in FRDA lymphoblasts; format: cell-based, human; conditions: 106 or 3 at 10 μM, SAHA at 2 μM, 48 h, normalized to GAPDH
[6] = system: p21^WAF1 mRNA in HEK293 cells; assay: p21WAF1 mRNA levels in HEK293 cells; format: cell-based; conditions: data not shown
class I HDACs = conditions: ref Chou et al., 2008; cited from earlier work
HDAC1 [7] = target: T1, HDAC1 (Homo sapiens, UniProt Q13547); assay: IC50 with recombinant HDAC1; format: biochemical
HDAC3/NcoR2 = HDAC3/NcoR2 (Homo sapiens, UniProt O15379); assay: Ki and kinetics from enzyme progression curves, HDAC3; format: biochemical; conditions: fit of Kobs versus inhibitor concentration
HDAC1 [8] = target: T1, HDAC1; assay: Ki and kinetics from enzyme progression curves, HDAC1; format: biochemical
[9] = system: acetylated histone H3 in FRDA lymphoblast cell line; assay: Histone H3 acetylation by western blot in FRDA lymphoblasts; format: cell-based, human; conditions: for hyperacetylation of histone H3 after inhibitor removal: 3 or 106 at 10 μM, SAHA at 2 μM, 24 h, then washed, 0 to 7 h
[10] = system: tubulin acetylation (class II HDAC6) in FRDA lymphoblasts; assay: Tubulin acetylation by western blot in FRDA lymphoblasts; format: cell-based, human
recombinant HDAC2 = recombinant HDAC2 (Homo sapiens, UniProt Q92769); assay: Inhibition of recombinant HDAC2; format: biochemical; conditions: data not shown
HDAC7 = target: T2, HDAC7 (Homo sapiens, UniProt Q8WUI4); assay: IC50 with recombinant HDAC7; format: biochemical
T2 sequence (Q8WUI4 1-952): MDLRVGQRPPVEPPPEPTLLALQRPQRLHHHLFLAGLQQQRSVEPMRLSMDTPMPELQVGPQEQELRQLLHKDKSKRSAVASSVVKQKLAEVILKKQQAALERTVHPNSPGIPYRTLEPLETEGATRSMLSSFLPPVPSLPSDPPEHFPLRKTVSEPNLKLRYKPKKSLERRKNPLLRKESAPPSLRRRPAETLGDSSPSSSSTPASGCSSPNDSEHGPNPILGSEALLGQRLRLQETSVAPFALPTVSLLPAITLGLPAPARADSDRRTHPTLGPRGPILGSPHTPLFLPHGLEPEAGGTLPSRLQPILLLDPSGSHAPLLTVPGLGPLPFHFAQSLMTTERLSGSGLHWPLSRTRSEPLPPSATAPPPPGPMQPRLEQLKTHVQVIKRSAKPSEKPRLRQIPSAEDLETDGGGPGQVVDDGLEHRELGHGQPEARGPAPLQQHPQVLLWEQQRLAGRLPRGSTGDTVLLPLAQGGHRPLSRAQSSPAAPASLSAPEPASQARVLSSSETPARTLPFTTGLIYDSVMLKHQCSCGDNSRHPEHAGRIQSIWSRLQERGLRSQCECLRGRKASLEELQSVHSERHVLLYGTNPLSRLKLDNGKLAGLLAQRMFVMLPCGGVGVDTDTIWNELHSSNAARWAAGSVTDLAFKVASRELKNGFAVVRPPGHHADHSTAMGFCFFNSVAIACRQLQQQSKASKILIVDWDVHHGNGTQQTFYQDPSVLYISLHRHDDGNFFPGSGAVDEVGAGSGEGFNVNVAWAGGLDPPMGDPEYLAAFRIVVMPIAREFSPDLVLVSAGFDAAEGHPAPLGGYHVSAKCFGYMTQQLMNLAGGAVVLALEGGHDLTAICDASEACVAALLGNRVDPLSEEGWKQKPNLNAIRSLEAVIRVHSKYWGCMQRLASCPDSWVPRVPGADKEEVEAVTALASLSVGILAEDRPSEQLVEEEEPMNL

class II HDACs = conditions: read-out: IC50s for class II enzymes; ref Chou et al., 2008; cited from earlier work
recombinant HDAC8 = conditions: ref Chou et al., 2008; cited from earlier work
[11] = recombinant HDAC1 vs HDAC3/NcoR2

T1 sequence (Q13547 whole entry): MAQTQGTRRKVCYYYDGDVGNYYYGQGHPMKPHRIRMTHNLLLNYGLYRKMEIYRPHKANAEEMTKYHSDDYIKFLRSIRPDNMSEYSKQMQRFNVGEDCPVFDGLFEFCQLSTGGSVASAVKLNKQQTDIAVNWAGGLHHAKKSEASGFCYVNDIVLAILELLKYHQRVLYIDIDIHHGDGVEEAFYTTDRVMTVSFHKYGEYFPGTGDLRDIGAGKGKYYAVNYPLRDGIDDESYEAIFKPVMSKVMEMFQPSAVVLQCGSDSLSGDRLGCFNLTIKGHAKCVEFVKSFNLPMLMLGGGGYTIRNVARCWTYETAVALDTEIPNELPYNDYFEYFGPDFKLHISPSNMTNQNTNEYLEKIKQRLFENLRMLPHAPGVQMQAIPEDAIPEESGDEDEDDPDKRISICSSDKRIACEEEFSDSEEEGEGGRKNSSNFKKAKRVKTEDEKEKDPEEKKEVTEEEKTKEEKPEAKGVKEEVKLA
Chain of recombinant HDAC2 (Q92769 whole entry): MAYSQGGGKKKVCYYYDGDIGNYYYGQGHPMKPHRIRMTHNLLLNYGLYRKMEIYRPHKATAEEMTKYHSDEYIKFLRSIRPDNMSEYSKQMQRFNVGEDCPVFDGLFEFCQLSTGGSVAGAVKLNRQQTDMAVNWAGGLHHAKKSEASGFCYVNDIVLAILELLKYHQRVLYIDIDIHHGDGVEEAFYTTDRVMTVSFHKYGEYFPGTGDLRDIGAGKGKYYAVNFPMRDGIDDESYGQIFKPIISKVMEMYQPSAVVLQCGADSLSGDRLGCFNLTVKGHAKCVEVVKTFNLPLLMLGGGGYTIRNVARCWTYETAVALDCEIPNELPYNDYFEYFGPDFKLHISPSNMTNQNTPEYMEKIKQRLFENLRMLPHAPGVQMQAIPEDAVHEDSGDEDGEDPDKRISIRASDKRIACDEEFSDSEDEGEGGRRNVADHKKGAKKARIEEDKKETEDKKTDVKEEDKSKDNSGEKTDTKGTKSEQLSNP
Chain of HDAC3/NcoR2 (O15379 whole entry): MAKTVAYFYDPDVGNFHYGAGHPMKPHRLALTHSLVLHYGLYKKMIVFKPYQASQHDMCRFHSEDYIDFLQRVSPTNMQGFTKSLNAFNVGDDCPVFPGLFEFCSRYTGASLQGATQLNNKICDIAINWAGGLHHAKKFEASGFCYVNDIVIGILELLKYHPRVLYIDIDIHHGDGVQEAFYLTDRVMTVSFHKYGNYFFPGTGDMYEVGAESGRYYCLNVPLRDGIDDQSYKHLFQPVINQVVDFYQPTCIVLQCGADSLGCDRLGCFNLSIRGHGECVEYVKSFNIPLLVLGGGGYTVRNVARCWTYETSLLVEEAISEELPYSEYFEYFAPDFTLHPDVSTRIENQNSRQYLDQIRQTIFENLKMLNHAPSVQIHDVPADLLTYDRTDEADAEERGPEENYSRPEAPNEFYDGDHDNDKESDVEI
Chain of HDAC3/NcoR2 (Q9Y618 395-489 partner limits assumed): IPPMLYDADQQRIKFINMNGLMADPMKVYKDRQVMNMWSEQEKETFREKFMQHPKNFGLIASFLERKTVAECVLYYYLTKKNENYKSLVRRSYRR

SMILES: O=C(CCCCCC(=O)Nc1ccccc1)Nc1ccccc1 [5b, N^1-phenyl-N^7-phenylheptanediamide]
- activation of FXN gene expression [1]: fails to activate
- IC50 (HDAC): ~200 µM

SMILES: NC(=O)C1CCCc2c1[nH]c1ccc(Cl)cc21 (stereo not shown) [6-chloro-2,3,4,9-tetrahydro-1H-carbazole-1-carboxamide]
- effect on FXN mRNA levels ([2]; concentrations up to 10 μM, 48 h): no effect
- effect on FXN mRNA levels ([3]; concentrations up to 10 μM, not shown): no effect
- effect on FXN mRNA levels [4]: no effect

SMILES: O=C(CCCCCCC(=O)Nc1ccccc1)NO [SAHA, suberoylanilide hydroxamic acid, reference compound]
- effect on frataxin protein levels [5]: decreased
- p21^WAF1 mRNA levels [6]: increased
- activation of FXN gene expression [1]: neither TSA nor SAHA is an activator

SMILES: CC(/C=C/C(=O)NO)=C\[C@@H](C)C(=O)c1ccc(N(C)C)cc1 [TSA, trichostatin A, reference compound]
- activation of FXN gene expression [1]: neither TSA nor SAHA is an activator
- inhibition kinetics with class I HDACs (class I HDACs): fast-on/fast-off

SMILES: Nc1ccc(-c2ccccc2)cc1NC(=O)CCCCCC(=O)Nc1ccccc1 [compound 3, N^1-(4-aminobiphenyl-3-yl)-N^7-phenylheptanediamide]
- preference for HDAC1 over HDAC3 comparing IC50 values (HDAC1 [7]; [11]): ~ 75 fold
- inhibition mechanism, HDAC3/NcoR2 (HDAC3/NcoR2): simple slow-on/slow-off mechanism
- inhibition mechanism, HDAC1 (HDAC1 [8]; fit of Kobs versus inhibitor concentration): slow-on/slow-off
- preference for HDAC1 over HDAC3 from Ki measurements (HDAC1 [8]; [11]): ~ 350 fold
- up-regulation of FXN mRNA levels ([2]; 48 h): fails to reproducibly up-regulate
- up-regulation of FXN mRNA ([2]; 48 h): ≤ 1.7 fold
- hyperacetylation of histone H3 after inhibitor removal [9]: decreased only slightly
- HDAC inhibition in FRDA cells (histone acetylation titration) ([9]; increasing concentrations, western blotting): comparably active
- tubulin acetylation ([10]; FRDA lymphoblasts): Neither 106 nor 3 caused tubulin acetylation
- effect on frataxin protein levels [5]: without significant effect
- p21^WAF1 mRNA levels [6]: increased
- activity against recombinant HDAC2 (recombinant HDAC2): similarly active

SMILES: CC(C)(C)OC(=O)Nc1ccc(NC(=O)CCCC(=O)C(F)(F)F)cc1 [compound 4, tert-butyl 4-(6,6,6-trifluoro-5-oxohexanamido)phenylcarbamate]
- IC50 (HDAC1 [7]): 30 µM
- up-regulation of FXN transcription ([2]; concentrations up to 40 μM): failed to show up-regulation
- tubulin acetylation ([10]; 1 μM in culture medium for 24 h): potent inducer
- tubulin acetylation ([10]; FRDA lymphoblasts): highly active
- effect on levels of FXN mRNA ([3]; concentrations up to 10 μM for 24 h): no positive effect
- IC50 (HDAC7): 4 µM
- preference for a class II HDAC (HDAC7) over a class I HDAC (HDAC1) (HDAC7; from IC50 values): 7.5 fold

SMILES: Cc1ccc(NC(=O)CCCCCC(=O)Nc2ccccc2N)cc1 [compound 106]
- up-regulation of FXN mRNA levels ([2]; 48 h): highly active
- up-regulation of FXN mRNA ([2]; 48 h): 3 – 4 fold
- hyperacetylation of histone H3 after inhibitor removal [9]: decreased only slightly
- tubulin acetylation ([10]; FRDA lymphoblasts): Neither 106 nor 3 caused tubulin acetylation
- effect on frataxin protein levels [5]: positive effect
- IC50 (class II HDACs): > 180 µM
- activity against HDAC8 (recombinant HDAC8): only weak inhibitory activity; also recorded: only weakly active
- inhibition kinetics with class I HDACs (class I HDACs): slow-on/slow-off

SMILES: CCCC(CCC)C(=O)O [valproic acid]
- activation of FXN gene expression [1]: none
